From BindingDB's records for doi:10.7270/Q2H70D87 (Nmmlsc, 2011)

Molecular target: 60S ribosomal protein L19-A (Saccharomyces cerevisiae (strain ATCC 204508 / S288c), UniProt P0CX82)
Test: TOR pathway reporter RPL19A-GFP modulators – cell-based, cherry pick 3, SAR, flow cytometry GFP, multiplex, dose response (AID 488814)
Details: inactive by the depositor's call

60S ribosomal protein L19-A, sequence (P0CX82 whole entry): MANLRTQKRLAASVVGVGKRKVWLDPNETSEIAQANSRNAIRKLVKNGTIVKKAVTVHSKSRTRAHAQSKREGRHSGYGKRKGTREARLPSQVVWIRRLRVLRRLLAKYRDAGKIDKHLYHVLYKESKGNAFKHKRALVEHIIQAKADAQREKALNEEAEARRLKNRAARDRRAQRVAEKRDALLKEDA

Compound	EC50 [µM]
CCOC(=O)CS(=O)(=O)c1nc(-c2ccccc2)cc(C(F)(F)F)n1 [2-[4-phenyl-6-(trifluoromethyl)pyrimidin-2-yl]sulfonylacetic acid ethyl ester]	55.7
Cc1ccc(C(=O)Nc2nc(-c3ccccn3)cs2)o1 [5-methyl-N-[4-(2-pyridinyl)-2-thiazolyl]-2-furancarboxamide]	38.2
